Test results as given in US9493455B2, “Azaindole derivatives as inhibitors of protein kinases” (ORIBASE PHARMA, priority 2012, dated 2016).

Legend:
Test in all cases: In vitro kinase assay (Z′-LYTE)
Assay type in all cases: biochemical
FGFR2 = target: T1, FGFR2 (Homo sapiens, UniProt P21802); conditions: read-out: % of inhibition of the kinase compared to the control
T1 construct: purchased Invitrogen
Method in brief: (§1)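 Inhibition measured at a single dose, 100 nM, or 10 μM for ABL T315I. Z′-LYTE format with ATP at apparent Km; emission ratio of donor to acceptor quantifies phosphorylation.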

HCK = target: T2, HCK (Homo sapiens, UniProt P08631); conditions: read-out: percent inhibition of the kinase compared to the control
T2 construct: purchased Invitrogen
Method in brief: as §1

ABL G250E = target: T3, ABL G250E (Homo sapiens, UniProt P00519, G250E); conditions: read-out: percent inhibition of the kinase compared to the control
T3 construct: purchased Invitrogen
Method in brief: as §1

FMS = target: T4, FMS (Homo sapiens, UniProt P07333); conditions: read-out: percent inhibition of the kinase compared to the control
T4 construct: purchased Invitrogen
Method in brief: as §1

FGFR1 = target: T5, FGFR1 (Homo sapiens, UniProt P11362); conditions: read-out: % of inhibition of the kinase compared to the control
T5 construct: purchased Invitrogen
Method in brief: as §1

BLK = target: T6, BLK (Homo sapiens, UniProt P51451); conditions: read-out: percent inhibition of the kinase compared to the control
T6 construct: purchased Invitrogen
Method in brief: as §1

BRAF V600E = target: T7, BRAF V600E (Homo sapiens, UniProt P15056, V600E); conditions: read-out: percent inhibition of the kinase compared to the control
T7 construct: purchased Invitrogen
Method in brief: as §1

RET = target: T8, RET (Homo sapiens, UniProt P07949); conditions: read-out: percent inhibition of the kinase compared to the control
T8 construct: purchased Invitrogen
Method in brief: as §1

PDGFRB = target: T9, PDGFRB (Homo sapiens, UniProt P09619); conditions: read-out: % of inhibition of the kinase compared to the control
T9 construct: purchased Invitrogen
Method in brief: as §1

EPHB4 = target: T10, EPHB4 (Homo sapiens, UniProt P54760); conditions: read-out: percent inhibition of the kinase compared to the control
T10 construct: purchased Invitrogen
Method in brief: as §1

EGFR (ErbB1) T790M L858R = target: T11, EGFR (ErbB1) T790M L858R (Homo sapiens, UniProt P00533, L858R/T790M); conditions: read-out: % of inhibition of the kinase compared to the control
T11 construct: purchased Invitrogen
Method in brief: as §1

HER2 = target: T12, HER2 (Homo sapiens, UniProt P04626); conditions: read-out: percent inhibition of the kinase compared to the control
T12 construct: purchased Invitrogen
Method in brief: as §1

FES = target: T13, FES (Homo sapiens, UniProt P07332); conditions: read-out: percent inhibition of the kinase compared to the control
T13 construct: purchased Invitrogen
Method in brief: as §1

KDR (VEGFR2) = target: T14, KDR (VEGFR2) (Homo sapiens, UniProt P35968); conditions: read-out: % of inhibition of the kinase compared to the control
T14 construct: purchased Invitrogen
Method in brief: as §1

PKC theta = target: T15, PKC theta (Homo sapiens, UniProt Q04759); conditions: read-out: percent inhibition of the kinase compared to the control
T15 construct: purchased Invitrogen
Method in brief: as §1

VEGFR3 = target: T16, VEGFR3 (Homo sapiens, UniProt P35916); conditions: read-out: percent inhibition of the kinase compared to the control
T16 construct: purchased Invitrogen
Method in brief: as §1

EPHB2 = target: T17, EPHB2 (Homo sapiens, UniProt P29323); conditions: read-out: percent inhibition of the kinase compared to the control
T17 construct: purchased Invitrogen
Method in brief: as §1

MAPK14 = target: T18, MAPK14 (Homo sapiens, UniProt Q16539); conditions: read-out: percent inhibition of the kinase compared to the control
T18 construct: purchased Invitrogen
Method in brief: as §1

EPHA1 = target: T19, EPHA1 (Homo sapiens, UniProt P21709); conditions: read-out: percent inhibition of the kinase compared to the control
T19 construct: purchased Invitrogen
Method in brief: as §1

ERBB4 = target: T20, ERBB4 (Homo sapiens, UniProt Q15303); conditions: read-out: percent inhibition of the kinase compared to the control
T20 construct: purchased Invitrogen
Method in brief: as §1

FLT3 = target: T21, FLT3 (Homo sapiens, UniProt P36888); conditions: read-out: percent inhibition of the kinase compared to the control
T21 construct: purchased Invitrogen
Method in brief: as §1

BRAF = target: T22, BRAF (Homo sapiens, UniProt P15056); conditions: compound 100 nM; ATP 100 μM; read-out: % of inhibition of the kinase compared to the control
T22 construct: purchased Invitrogen
Method in brief: as §1

EPHA2 = target: T23, EPHA2 (Homo sapiens, UniProt P29317); conditions: read-out: percent inhibition of the kinase compared to the control
T23 construct: purchased Invitrogen
Method in brief: as §1

FGR = target: T24, FGR (Homo sapiens, UniProt P09769); conditions: read-out: percent inhibition of the kinase compared to the control
T24 construct: purchased Invitrogen
Method in brief: as §1

YES = target: T25, YES (Homo sapiens, UniProt P07947); conditions: read-out: percent inhibition of the kinase compared to the control
T25 construct: purchased Invitrogen
Method in brief: as §1

FRK = target: T26, FRK (Homo sapiens, UniProt P42685); conditions: read-out: percent inhibition of the kinase compared to the control
T26 construct: purchased Invitrogen
Method in brief: as §1

ERK2 = target: T27, ERK2 (Homo sapiens, UniProt P28482); conditions: read-out: percent inhibition of the kinase compared to the control
T27 construct: purchased Invitrogen
Method in brief: as §1

ABL Y253F = target: T28, ABL Y253F (Homo sapiens, UniProt P00519, Y253F); conditions: read-out: percent inhibition of the kinase compared to the control
T28 construct: purchased Invitrogen
Method in brief: as §1

BTK = target: T29, BTK (Homo sapiens, UniProt Q06187); conditions: read-out: percent inhibition of the kinase compared to the control
T29 construct: purchased Invitrogen
Method in brief: as §1

ABL = target: T30, ABL (Homo sapiens, UniProt P00519); conditions: read-out: % of inhibition of the kinase compared to the control
T30 construct: purchased Invitrogen

LCK = target: T31, LCK (Homo sapiens, UniProt P06239); conditions: read-out: percent inhibition of the kinase compared to the control
T31 construct: purchased Invitrogen
Method in brief: as §1

FYN = target: T32, FYN (Homo sapiens, UniProt P06241); conditions: read-out: percent inhibition of the kinase compared to the control
T32 construct: purchased Invitrogen
Method in brief: as §1

BMX = target: T33, BMX (Homo sapiens, UniProt P51813); conditions: read-out: percent inhibition of the kinase compared to the control
T33 construct: purchased Invitrogen
Method in brief: as §1

T24 sequence (P09769 whole entry): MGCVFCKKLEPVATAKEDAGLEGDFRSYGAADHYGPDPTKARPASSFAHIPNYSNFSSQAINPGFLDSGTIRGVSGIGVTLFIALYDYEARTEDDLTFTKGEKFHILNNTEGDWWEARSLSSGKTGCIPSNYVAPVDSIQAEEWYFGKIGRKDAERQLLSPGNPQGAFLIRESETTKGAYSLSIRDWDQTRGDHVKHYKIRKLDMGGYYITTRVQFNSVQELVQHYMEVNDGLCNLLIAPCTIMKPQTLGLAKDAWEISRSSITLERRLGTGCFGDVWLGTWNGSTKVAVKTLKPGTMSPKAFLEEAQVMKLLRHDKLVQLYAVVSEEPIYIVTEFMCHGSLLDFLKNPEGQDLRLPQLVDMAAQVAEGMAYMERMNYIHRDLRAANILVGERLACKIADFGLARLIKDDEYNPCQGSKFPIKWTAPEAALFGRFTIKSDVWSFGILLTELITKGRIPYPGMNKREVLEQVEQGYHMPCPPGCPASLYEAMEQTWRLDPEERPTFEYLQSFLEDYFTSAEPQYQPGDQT
T31 sequence (P06239 whole entry): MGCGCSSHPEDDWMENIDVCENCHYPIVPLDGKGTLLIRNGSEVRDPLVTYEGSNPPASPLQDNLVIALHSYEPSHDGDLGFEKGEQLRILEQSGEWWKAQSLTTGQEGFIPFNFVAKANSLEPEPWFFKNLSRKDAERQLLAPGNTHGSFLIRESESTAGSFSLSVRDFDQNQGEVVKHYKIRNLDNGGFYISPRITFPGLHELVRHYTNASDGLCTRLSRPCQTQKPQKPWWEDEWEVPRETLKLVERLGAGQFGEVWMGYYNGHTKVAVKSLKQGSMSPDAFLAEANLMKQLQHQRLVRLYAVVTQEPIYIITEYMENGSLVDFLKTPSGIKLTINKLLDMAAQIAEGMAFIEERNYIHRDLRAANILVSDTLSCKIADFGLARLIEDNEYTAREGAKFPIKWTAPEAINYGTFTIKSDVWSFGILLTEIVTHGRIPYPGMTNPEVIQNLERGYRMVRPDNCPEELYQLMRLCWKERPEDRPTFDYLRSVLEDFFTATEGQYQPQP
T18 sequence (Q16539 whole entry): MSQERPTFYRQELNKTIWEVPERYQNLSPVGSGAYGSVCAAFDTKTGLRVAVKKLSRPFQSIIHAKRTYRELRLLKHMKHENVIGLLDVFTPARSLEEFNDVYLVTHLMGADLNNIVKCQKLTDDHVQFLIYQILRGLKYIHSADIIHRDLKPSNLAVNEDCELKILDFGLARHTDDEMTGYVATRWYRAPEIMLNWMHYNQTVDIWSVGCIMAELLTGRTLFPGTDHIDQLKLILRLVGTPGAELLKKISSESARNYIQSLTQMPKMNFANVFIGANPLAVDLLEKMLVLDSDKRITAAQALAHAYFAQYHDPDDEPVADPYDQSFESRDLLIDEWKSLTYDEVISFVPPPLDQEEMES
T20 sequence (Q15303 26-1308): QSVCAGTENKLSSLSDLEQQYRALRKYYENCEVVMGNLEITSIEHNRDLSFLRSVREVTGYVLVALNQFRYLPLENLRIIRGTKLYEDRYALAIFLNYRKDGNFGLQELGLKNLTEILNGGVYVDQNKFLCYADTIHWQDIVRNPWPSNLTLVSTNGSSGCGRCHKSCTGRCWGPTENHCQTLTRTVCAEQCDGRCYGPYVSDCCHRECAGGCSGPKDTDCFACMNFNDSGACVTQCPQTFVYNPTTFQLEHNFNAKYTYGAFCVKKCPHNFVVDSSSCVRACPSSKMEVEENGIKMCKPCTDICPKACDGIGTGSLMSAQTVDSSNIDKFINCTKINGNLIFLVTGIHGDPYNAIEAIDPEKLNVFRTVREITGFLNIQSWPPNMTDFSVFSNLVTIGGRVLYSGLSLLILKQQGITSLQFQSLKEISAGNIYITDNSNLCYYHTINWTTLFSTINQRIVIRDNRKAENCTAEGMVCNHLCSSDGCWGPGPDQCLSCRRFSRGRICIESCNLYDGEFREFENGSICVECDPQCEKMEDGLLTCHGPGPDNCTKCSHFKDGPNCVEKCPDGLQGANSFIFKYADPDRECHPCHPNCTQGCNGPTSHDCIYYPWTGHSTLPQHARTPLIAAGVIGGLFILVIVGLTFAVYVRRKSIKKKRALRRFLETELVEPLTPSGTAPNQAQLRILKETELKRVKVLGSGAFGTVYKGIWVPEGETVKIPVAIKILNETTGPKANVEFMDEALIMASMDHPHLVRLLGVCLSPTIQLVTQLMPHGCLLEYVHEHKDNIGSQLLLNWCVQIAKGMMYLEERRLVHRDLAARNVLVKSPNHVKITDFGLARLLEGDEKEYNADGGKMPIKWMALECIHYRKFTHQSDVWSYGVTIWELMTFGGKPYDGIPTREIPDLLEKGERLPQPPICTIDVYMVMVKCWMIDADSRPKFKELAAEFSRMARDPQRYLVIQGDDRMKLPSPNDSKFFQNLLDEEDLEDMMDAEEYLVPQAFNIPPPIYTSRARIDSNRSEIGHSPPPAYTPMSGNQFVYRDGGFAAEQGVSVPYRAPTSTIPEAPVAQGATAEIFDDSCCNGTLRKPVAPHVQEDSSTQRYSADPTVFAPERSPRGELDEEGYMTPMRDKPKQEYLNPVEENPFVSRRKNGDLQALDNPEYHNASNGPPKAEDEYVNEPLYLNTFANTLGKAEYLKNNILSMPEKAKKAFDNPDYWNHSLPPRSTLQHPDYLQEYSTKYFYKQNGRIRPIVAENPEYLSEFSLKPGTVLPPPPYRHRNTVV
T7 sequence (P15056 whole entry V600E): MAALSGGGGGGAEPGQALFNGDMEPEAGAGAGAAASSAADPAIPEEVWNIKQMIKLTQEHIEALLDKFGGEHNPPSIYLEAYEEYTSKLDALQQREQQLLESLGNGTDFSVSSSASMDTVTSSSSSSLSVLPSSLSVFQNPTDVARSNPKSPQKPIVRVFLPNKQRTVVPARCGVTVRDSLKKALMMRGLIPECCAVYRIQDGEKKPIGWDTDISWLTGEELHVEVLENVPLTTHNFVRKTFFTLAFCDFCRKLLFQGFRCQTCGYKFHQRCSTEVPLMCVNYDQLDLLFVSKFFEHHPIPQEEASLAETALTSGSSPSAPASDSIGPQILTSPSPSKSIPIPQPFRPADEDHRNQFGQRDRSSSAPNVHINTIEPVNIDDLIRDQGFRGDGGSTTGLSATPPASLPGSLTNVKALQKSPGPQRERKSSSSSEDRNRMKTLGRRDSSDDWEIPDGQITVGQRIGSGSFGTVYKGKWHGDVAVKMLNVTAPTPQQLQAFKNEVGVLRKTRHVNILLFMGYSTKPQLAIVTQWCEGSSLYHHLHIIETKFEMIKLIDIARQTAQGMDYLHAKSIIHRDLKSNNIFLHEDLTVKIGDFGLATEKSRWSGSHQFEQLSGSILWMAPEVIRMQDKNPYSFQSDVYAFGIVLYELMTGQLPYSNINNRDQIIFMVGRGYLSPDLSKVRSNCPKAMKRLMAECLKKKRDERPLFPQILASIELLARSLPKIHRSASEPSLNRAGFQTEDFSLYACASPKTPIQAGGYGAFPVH
T33 sequence (P51813 whole entry): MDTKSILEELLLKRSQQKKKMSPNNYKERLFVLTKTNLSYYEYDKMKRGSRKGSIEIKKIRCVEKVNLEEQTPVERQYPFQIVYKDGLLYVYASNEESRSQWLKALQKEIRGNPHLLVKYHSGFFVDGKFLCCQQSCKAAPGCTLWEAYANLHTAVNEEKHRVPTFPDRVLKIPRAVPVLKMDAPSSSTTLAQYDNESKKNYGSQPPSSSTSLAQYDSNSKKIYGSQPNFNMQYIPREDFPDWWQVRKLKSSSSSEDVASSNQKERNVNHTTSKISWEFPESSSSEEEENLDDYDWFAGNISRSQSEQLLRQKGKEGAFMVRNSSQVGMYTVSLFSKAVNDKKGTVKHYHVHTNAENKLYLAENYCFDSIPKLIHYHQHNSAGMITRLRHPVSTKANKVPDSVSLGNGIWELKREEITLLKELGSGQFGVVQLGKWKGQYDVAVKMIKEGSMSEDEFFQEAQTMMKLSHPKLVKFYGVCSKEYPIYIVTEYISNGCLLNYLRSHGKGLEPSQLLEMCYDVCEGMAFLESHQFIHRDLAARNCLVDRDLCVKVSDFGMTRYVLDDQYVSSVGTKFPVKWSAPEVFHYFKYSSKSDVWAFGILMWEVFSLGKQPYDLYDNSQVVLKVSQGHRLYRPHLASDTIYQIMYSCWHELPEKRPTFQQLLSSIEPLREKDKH
T25 sequence (P07947 whole entry): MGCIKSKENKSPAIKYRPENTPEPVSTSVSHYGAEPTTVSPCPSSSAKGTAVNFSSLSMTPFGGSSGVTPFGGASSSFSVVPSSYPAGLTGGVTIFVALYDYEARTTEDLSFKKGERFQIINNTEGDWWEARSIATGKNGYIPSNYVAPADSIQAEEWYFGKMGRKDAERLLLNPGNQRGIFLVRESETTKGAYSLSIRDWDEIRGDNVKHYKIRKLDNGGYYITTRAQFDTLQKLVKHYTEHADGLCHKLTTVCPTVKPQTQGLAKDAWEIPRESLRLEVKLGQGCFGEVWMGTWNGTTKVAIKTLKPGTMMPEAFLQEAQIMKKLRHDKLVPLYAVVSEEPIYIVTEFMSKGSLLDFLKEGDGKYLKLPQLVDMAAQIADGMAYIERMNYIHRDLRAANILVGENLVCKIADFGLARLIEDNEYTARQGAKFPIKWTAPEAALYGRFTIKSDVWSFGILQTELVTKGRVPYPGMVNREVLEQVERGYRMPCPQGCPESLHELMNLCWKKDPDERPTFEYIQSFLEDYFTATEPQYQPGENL
T27 sequence (P28482 whole entry): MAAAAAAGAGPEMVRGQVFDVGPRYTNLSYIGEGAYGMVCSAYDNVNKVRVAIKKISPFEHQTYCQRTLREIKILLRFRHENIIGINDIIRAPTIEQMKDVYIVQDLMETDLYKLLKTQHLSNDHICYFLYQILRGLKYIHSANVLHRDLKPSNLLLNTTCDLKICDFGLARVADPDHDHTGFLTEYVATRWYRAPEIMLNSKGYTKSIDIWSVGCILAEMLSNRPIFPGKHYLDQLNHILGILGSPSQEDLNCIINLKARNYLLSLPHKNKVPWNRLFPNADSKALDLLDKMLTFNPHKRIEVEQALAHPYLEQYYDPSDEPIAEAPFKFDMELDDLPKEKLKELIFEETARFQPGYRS

COC(=O)c1cc2cc(NCc3cc(NC(=O)c4ccc(CN5CCN(C)CC5)c(C(F)(F)F)c4)ccc3C)cnc2[nH]1 [OR0512]
inhibition at 0.1 µM (FGFR2): ≥ 50%
inhibition at 0.1 µM (HCK): > 50%
inhibition at 0.1 µM (ABL G250E): > 50%
inhibition at 0.1 µM (FMS): > 50%
inhibition at 0.1 µM (FGFR1): ≥ 50%
inhibition at 0.1 µM (BLK): > 50%
inhibition at 0.1 µM (BRAF V600E): > 50%
inhibition at 0.1 µM (RET): > 50%
inhibition at 0.1 µM (PDGFRB): ≥ 50%
inhibition at 0.1 µM (EPHB4): > 50%
inhibition at 0.1 µM (EGFR (ErbB1) T790M L858R): < 50%
inhibition at 0.1 µM (HER2): > 50%
inhibition at 0.1 µM (FES): > 50%
inhibition at 0.1 µM (KDR (VEGFR2)): ≥ 50%
inhibition at 0.1 µM (PKC theta): > 50%
inhibition at 0.1 µM (VEGFR3): > 50%
inhibition at 0.1 µM (EPHB2): > 50%
inhibition at 0.1 µM (MAPK14): > 50%
inhibition at 0.1 µM (EPHA1): > 50%
inhibition at 0.1 µM (ERBB4): > 50%
inhibition at 0.1 µM (FLT3): > 50%
inhibition at 0.1 µM (BRAF): ≥ 50%
inhibition at 0.1 µM (EPHA2): > 50%
inhibition at 0.1 µM (FGR): > 50%
inhibition at 0.1 µM (YES): > 50%
inhibition at 0.1 µM (FRK): > 50%
inhibition at 0.1 µM (ERK2): > 50%
inhibition at 0.1 µM (ABL Y253F): > 50%
inhibition at 0.1 µM (BTK): > 50%
inhibition at 10 µM (ABL): ≥ 50%
inhibition at 0.1 µM (LCK): > 50%
inhibition at 0.1 µM (FYN): > 50%
inhibition at 0.1 µM (BMX): > 50%
